Source: the supplement of paper PMC13380429
± gives the standard deviation of the averaged measurements.

Key:
Conditions in all cases: 72 h
Vero E6 [1] = assay: relative viability EC50 (midpoint between 100% and the lowest measured viability); higher = less toxic
Calu-3 [2] = assay: as above
HepG2 [3] = assay: as above
U2OS [4] = assay: as above
Caco-2 [5] = assay: as above
Vero E6 [6] = assay: cell viability relative to DMSO; higher = less toxic
Calu-3 [7] = assay: as above
HepG2 [8] = assay: as above
U2OS [9] = assay: as above
Caco-2 [10] = assay: as above
Vero E6 [11] = assay: drug sensitivity score (DSS) for viability; higher = more toxic; extreme values may be limits of the assay
Calu-3 [12] = assay: as above
HepG2 [13] = assay: as above
U2OS [14] = assay: as above
Caco-2 [15] = assay: as above

| SMILES | relative viability EC50 (Vero E6 [1]) | relative viability EC50 (Calu-3 [2]) | relative viability EC50 (HepG2 [3]) | relative viability EC50 (U2OS [4]) | relative viability EC50 (Caco-2 [5]) | cell viability (Vero E6 [6]; 1 nM) | cell viability (Vero E6 [6]; 10 nM) | cell viability (Vero E6 [6]; 100 nM) | cell viability (Vero E6 [6]; 1000 nM) | cell viability (Vero E6 [6]; 10000 nM) | cell viability (Calu-3 [7]; 1 nM) | cell viability (Calu-3 [7]; 10 nM) | cell viability (Calu-3 [7]; 100 nM) | cell viability (Calu-3 [7]; 1000 nM) | cell viability (Calu-3 [7]; 10000 nM) | cell viability (HepG2 [8]; 1 nM) | cell viability (HepG2 [8]; 10 nM) | cell viability (HepG2 [8]; 100 nM) | cell viability (HepG2 [8]; 1000 nM) | cell viability (HepG2 [8]; 10000 nM) | cell viability (U2OS [9]; 1 nM) | cell viability (U2OS [9]; 10 nM) | cell viability (U2OS [9]; 100 nM) | cell viability (U2OS [9]; 1000 nM) | cell viability (U2OS [9]; 10000 nM) | cell viability (Caco-2 [10]; 1 nM) | cell viability (Caco-2 [10]; 10 nM) | cell viability (Caco-2 [10]; 100 nM) | cell viability (Caco-2 [10]; 1000 nM) | cell viability (Caco-2 [10]; 10000 nM) | drug sensitivity score (Vero E6 [11]) | drug sensitivity score (Calu-3 [12]) | drug sensitivity score (HepG2 [13]) | drug sensitivity score (U2OS [14]) | drug sensitivity score (Caco-2 [15]) |
| --- | --- | --- | --- | --- | --- | --- | --- | --- | --- | --- | --- | --- | --- | --- | --- | --- | --- | --- | --- | --- | --- | --- | --- | --- | --- | --- | --- | --- | --- | --- | --- | --- | --- | --- | --- |
| CC(C)c1onc(-c2c(Cl)cccc2Cl)c1COc1ccc(/C=C/c2cccc(C(=O)O)c2)c(Cl)c1 [GW-4064] | > 10 µM | > 10 µM | > 10 µM | > 10 µM | > 10 µM | 95.5% | 99.8% | 94% | 93.8% | 95.7% | 93.9% | 107% | 103% | 102% | 96.5% | 105% | 103% | 92.4% | 99.2% | 93.8% | 98.2% | 106% | 96.4% | 93.3% | 97.7% | 94% | 99.4% | 102% | 91% | 81.4% | 0 | 0 | 0 | 0 | 1.4 |
| CC(=O)N[C@@H](Cc1ccc(O)cc1)C(=O)O [N-acetyl-tyrosine] | > 10 µM | > 10 µM | > 10 µM | > 10 µM | > 10 µM | 98.6% | 93.4% | 94.3% | 95% | 101% | 105% | 107% | 108% | 106% | 94.6% | 93.9% | 88.5% | 93.8% | 97.7% | 98.2% | 95.3% | 101% | 96.6% | 101% | 107% | 92.7% | 92.8% | 91% | 95.6% | 102% | 0 | 0 | 0 | 0 | 0 |
| C[S+](C)CC[C@H](N)C(=O)O [cabagin] | > 10 µM | > 10 µM | > 10 µM | > 10 µM | > 10 µM | 92.1% | 99.5% | 85.3% | 101% | 108% | 103% | 84.8% | 85.1% | 86.3% | 103% | 95.6% | 99.5% | 103% | 102% | 98.5% | 97.9% | 92.3% | 101% | 94.7% | 100% | 90.6% | 97.6% | 109% | 97.3% | 99.6% | 0 | 0 | 0 | 0 | 0 |
| CCOCCOc1ccccc1C(N)=O [etosalamide] | > 10 µM | > 10 µM | > 10 µM | > 10 µM | > 10 µM | 104% | 93.7% | 93.3% | 95.4% | 96.1% | 102% | 90.5% | 97.6% | 101% | 98.7% | 111% | 104% | 86.7% | 101% | 92.3% | 102% | 99.9% | 102% | 101% | 97.7% | 91.3% | 89.5% | 108% | 97.9% | 100% | 0 | 0 | 0 | 0 | 0 |
| O=C(O)C1=CCCN(CCOC(c2ccc(C(F)(F)F)cc2)c2ccc(C(F)(F)F)cc2)C1 [CI-966] | > 10 µM | > 10 µM | > 10 µM | > 10 µM | > 10 µM | 98.2% | 99.4% | 101% | 97.8% | 99.4% | 97.6% | 101% | 102% | 98.5% | 96.4% | 98.7% | 99.3% | 104% | 95.5% | 109% | 101% | 107% | 106% | 98.7% | 98% | 101% | 101% | 105% | 100% | 90.4% | 0 | 0 | 0 | 0 | 0 |
| CC(C)(N)CC12CC3CC(CC(C3)C1)C2 [somantadine] | > 10 µM | > 10 µM | > 10 µM | > 10 µM | > 10 µM | 97.1% | 98.3% | 100% | 100% | 96.1% | 100% | 99.8% | 99.1% | 94.3% | 96.8% | 100% | 101% | 95.5% | 84.8% | 87.4% | 100% | 95.5% | 99.5% | 91.7% | 92.4% | 100% | 95.9% | 104% | 96.2% | 93.4% | 0 | 0 | 1.9 | 0 | 0 |
| CC(=O)c1ccc2c(c1)N(CCCN1CCN(CCO)CC1)c1ccccc1S2 [acetophenazine] | > 10 µM | > 10 µM | > 10 µM | > 10 µM | > 10 µM | 104% | 98.2% | 106% | 99% | 82.6% | 107% | 110% | 95.3% | 108% | 88.7% | 107% | 98.9% | 91.1% | 90.9% | 90.4% | 93.6% | 100% | 96.1% | 98.2% | 91.3% | 88.8% | 103% | 95.4% | 97.2% | 97.7% | 0.5 | 0 | 0 | 0 | 0 |
| CCCCOC(=O)c1cc2c(cn1)[nH]c1ccccc12 [beta-CCB] | > 10 µM | > 10 µM | > 10 µM | > 10 µM | > 10 µM | 99.5% | 97.3% | 101% | 98.7% | 102% | 92.2% | 93% | 107% | 106% | 91.5% | 117% | 118% | 105% | 98.4% | 96% | 102% | 111% | 99.3% | 105% | 96% | 95.1% | 95.5% | 106% | 94.9% | 88.9% | 0 | 0 | 0 | 0 | 0.1 |
| Cn1cc([S+](C)[O-])c(=O)c2ccc(F)cc21 (stereo not given) [flosequinan] | > 10 µM | > 10 µM | > 10 µM | > 10 µM | > 10 µM | 97.5% | 97.7% | 98.8% | 96.3% | 96.4% | 98.6% | 95.5% | 99.6% | 101% | 110% | 103% | 97.9% | 97% | 95.4% | 86.9% | 104% | 95.3% | 98.5% | 99% | 102% | 110% | 95.3% | 107% | 102% | 95.7% | 0 | 0 | 0.1 | 0 | 0 |
| O=C(O)CSc1nnc(Br)n1-c1ccc(C2CC2)c2ccccc12 [lesinurad] | > 10 µM | > 10 µM | > 10 µM | > 10 µM | > 10 µM | 99.4% | 100% | 99.9% | 102% | 99.5% | 99% | 101% | 106% | 95.5% | 102% | 98.8% | 102% | 99.4% | 84.8% | 99.7% | 99.6% | 103% | 95.2% | 95.9% | 96.3% | 98.4% | 90.9% | 91.4% | 94% | 99.7% | 0 | 0 | 0 | 0 | 0 |
| Nc1nc(=O)c2c([nH]1)NCC(CNc1ccc(C(=O)N[C@@H](CCC(=O)O)C(=O)O)cc1)N2C=O (stereo not given in full) [leucovorin] | > 10 µM | > 10 µM | > 10 µM | > 10 µM | > 10 µM | 101 ± 3.2% | 98.2 ± 5.1% | 104 ± 1.4% | 97.2 ± 2% | 101 ± 6.8% | 103 ± 15% | 96.9 ± 7.9% | 97.45 ± 0.78% | 99.3 ± 1.7% | 105 ± 7.5% | 116% | 96.5% | 100% | 108% | 97.5% | 108% | 98.9% | 98.1% | 95.6% | 99.2% | 92 ± 1.3% | 94.5 ± 6.2% | 89.6 ± 2.3% | 100.3 ± 0.92% | 100 ± 2% | 0 | 0 | 0 | 0 | 0 |
| C[C@@H](c1ncncc1F)[C@](O)(Cn1cncn1)c1ccc(F)cc1F [voriconazole] | > 10 µM | > 10 µM | > 10 µM | > 10 µM | > 10 µM | 98.8% | 101% | 97.8% | 108% | 105% | 92.4% | 97.5% | 92.4% | 99.8% | 110% | 100% | 106% | 86.9% | 107% | 122% | 103% | 101% | 97.6% | 97.4% | 109% | 101% | 92.5% | 102% | 85.6% | 110% | 0 | 0 | 0 | 0 | 0 |
| CC[C@H](/C=C/[C@@H](C)[C@H]1CC[C@H]2[C@@H]3CC=C4C[C@@H](O)CC[C@]4(C)[C@H]3CC[C@]12C)C(C)C [Stigmasterol (Stigmasterin)] | > 10 µM | > 10 µM | > 10 µM | > 10 µM | > 10 µM | 99% | 104% | 99.4% | 106% | 102% | 95% | 103% | 110% | 102% | 104% | 103% | 109% | 92.9% | 92.8% | 105% | 105% | 96.4% | 100% | 99.3% | 99.4% | 102% | 107% | 94.6% | 93.5% | 96.9% | 0 | 0 | 0 | 0 | 0 |
| O=c1cc[nH]c(=O)[nH]1 [uracil] | > 10 µM | > 10 µM | > 10 µM | > 10 µM | > 10 µM | 96.2% | 88.4% | 91.8% | 89.5% | 112% | 91.8% | 95.2% | 93% | 94.6% | 95.6% | 98.6% | 94% | 99.6% | 102% | 117% | 91.7% | 98.7% | 94.8% | 102% | 103% | 91.5% | 90.6% | 91.3% | 93.8% | 98.5% | 0 | 0 | 0 | 0 | 0 |
